The values below come from paper PMC7615676, “Short-course combination treatment for experimental chronic Chagas disease” (Science translational medicine, 2023).

Read-outs that look alike come from different tables or passages of the source.

In series [1] the test system is T. cruzi culture derived trypomastigotes, strain Silvio X10/7 A1. Description: trypomastigote assay. Format: cell-based. Particulars: Trypanosoma cruzi. As to the method:
Trypomastigote assays using strain Silvio X10/7 subclone A1 were carried out as described in ([19]). Parasite culture and potency determinations for panel of strains were performed as in ([19]). Strains used were M6241 clone 6 (DTU III), ERA clone 2 (DTU IV), PAH179 clone 5 (DTU V) and CL Brener-Luciferase (PpyRE9h-expressing T. cruzi, same strain that is used in animal model studies ([67])) (DTU VI). […] For Y strain compound exposure time was 3 days. Rate-of-kill assays were carried out as described in ([39]).

Series [2] deals with intracellular T. cruzi amastigotes, strain Silvio X10/7 A1. Description: intracellular T. cruzi amastigote potency assay. The conditions noted are these: Trypanosoma cruzi. The series is classed as cell-based.
A short description of series [3]: bioanalysis of blood samples from in vivo efficacy studies. More on the design: species or system BALB/c mice. The conditions noted are these: for AUC(0-t) / Cmax: BALB/c, mouse, whole blood, po; for AUC0-7h Day 1, unbound concentrations of BNZ / AUC0-7h Day 5, unbound concentrations of BNZ / Cmax Day 1, unbound concentrations of BNZ / Cmax Day 5, unbound concentrations of BNZ: 30mg/kg qd; for AUC0-7h Day 1, unbound concentrations of BNZ / AUC0-7h Day 5, unbound concentrations of BNZ / Cmax Day 1, unbound concentrations of BNZ / Cmax Day 5, unbound concentrations of BNZ / AUC0-7h Day 1, unbound concentrations of 4 / AUC0-7h Day 5, unbound concentrations of 4 / Cmax Day 1, unbound concentrations of 4 / Cmax Day 5, unbound concentrations of 4: 5 days. The procedure: Following the first daily dose on day 1 and last day of treatment, serial blood samples were taken by the tail vein from all treated mice pre-dose, then 30 minutes, 1, 2, 4, and 8 hours post-dose, mixed with two volumes of distilled water and analyzed for test compound. Quantification of compounds was performed by means of LC/MSMS and exposure parameters namely Cmax and AUClast were estimated using Phoenix 64 (Pharsight Certara).

Series [4] relates to HepG2 cells. Description: general cytotoxicity assay in HepG2 cells. Format: cell-based. The conditions noted are these: Homo sapiens, HepG2, 48 h, CellTiter-Glo. The procedure:
This assay was previously described ([36]). Briefly, actively growing HepG2 cells were removed from a T-175 TC flask using 5 ml Eagle’s MEM (containing 10 % FBS, 1 % NEAA, 1 % penicillin/ streptomycin. Carbon source is D-glucose at 1 g/l) and dispersed in the medium by repeated pipetting. Seeding density was checked to ensure that new monolayers were not more than 50 % confluent at the time of harvesting. Cell suspension was added to 500 ml of the same medium at a final density of 1.2 x 10^5 cells/ml. This cell suspension was dispensed (25 μl, 3000 cells per well) into 384-well clear-bottom plates using a Multidrop Combi dispenser. Prior to addition of the cell suspension, the screening compounds (250 nl) were predispensed into the plates with an EchoH liquid handler. Plates were incubated for 48 h at 37°C, 5% CO2. After incubation, plates equilibrated at room temperature for 30 min before proceeding to develop the luminescent signal. The signal developer, CellTiter-Glo Reagent, was allowed to equilibrate at room temperature for 30 min and added to the plates ([…]) using a Multidrop Combi dispenser. Plates were left for 10 min at room temperature for stabilization and then read using a ViewLux.
In general terms: In ATP-based viability assays light output follows the ATP content of the culture.

A short description of series [5]: intrinsic clearance in mouse liver microsomes. The series is classed as in vitro ADME. The conditions noted are these: for half-life at 0.5 μM: male, CD-1, read-out: T 1/2 mouse. As to the method:
Immediately at time zero and at several serial times points up to 30 min, an aliquot of the incubation mixture was removed and mixed with acetonitrile to stop the reaction. Internal standard was added to all samples, the samples centrifuged to sediment precipitated protein and the plates then sealed prior to HPLC-MS/MS analysis. Metabolic stability expressed as a percentage of the parent molecule was calculated using the peak area ratio (compound peak area/internal standard peak area) of different compounds remaining after each incubation time compared to time zero of the incubation. The half-life (t1/2) was calculated using the following equation: t1/2=−ln(2)/k, where k is the turn-over rate constant of the ln (percent remaining) vs time regression.
CLint was calculated from the half-life (t1/2) using the following equations:
CLint (ml/min/g liver) = (0.693/(t1/2) x (ml of incubation/mg microsomal protein) x (mg microsomal protein/g liver).
For orientation: Microsomes from liver hold many membrane-bound enzymes, among them those of drug oxidation.

Series [6] is described as follows: Property Forecast Index. The series is classed as physicochemical. The conditions noted are these: number of aromatic rings + ChromLogD at pH 7.4.
Series [7] addresses T. cruzi complex III (epimastigote lysates) (Trypanosoma cruzi, UniProt Q9T479). Description: T. cruzi complex III assay. Format: biochemical. Particulars: decylubiquinol substrate. The procedure:
Complex III activity within these lysates was monitored in the presence and absence of compound 3, compound 5 and related analogues from this series, using decylubiquinol as a pseudo-substrate ([43]).
Measurement of complex III activity and inhibition were performed as described previously ([43]).

A short description of series [8]: plasma protein binding, equilibrium dialysis. The series is classed as in vitro ADME. The conditions noted are these: pH 7.4, mouse plasma, read-out: Mouse PPB % (converted). As to the method:
In vitro plasma protein binding was measured in mouse and human plasma using equilibrium dialysis at a nominal concentration of 2 μM. The RED inserts were placed in the 48 wells of the Teflon Plate (Pierce). Samples were prepared by mixing the test compound with plasma at the appropriate concentrations to yield a final drug concentration of 2 μM. Triplicate aliquots of plasma containing compounds at a concentration of 2 μM were pipetted to plasma side (red) of the insert, and PBS (phosphate buffered saline) pH 7.4 was placed into the receiver side (white) of the insert. The plate was covered with the sealing tape and incubated in a 37 °C orbital shaker water bath at approximately 150 rpm for 4 h. Following incubation, samples were prepared in a mixed matrix configuration. Aliquots of samples were pipetted into 96-well plates, and precipitation buffer was added to protein precipitate the samples. Samples were vortexed to mix, then centrifuged for 15 min at 3700 rpm and 4 °C. The supernatant was assayed directly by LC−MS/MS. The following equation was used to calculate the percentage bound drug fraction using this equilibrium dialysis method
% unbound = (buffer chamber]/[plasma chamber) x100
A general note: In equilibrium dialysis only unbound substance equilibrates across the membrane.

Series [9] deals with chronic T. cruzi infection (CL Brener) in BALB/c mice. Description: bioluminescent mouse model of chronic Chagas disease. Format: in vivo, Trypanosoma cruzi. Particulars: 5 days.
Where [10] appears, read: read-out: Trypomastigotes pEC50 (converted).
Setting [11] is: intracellular amastigotes Silvio X10/7 A1, 96 h, ± SD, min. three experiments, read-out: Amastigotes pEC50 (converted).
The mark [12] stands for this setting: read-out: HepG2 pEC50 (converted).
The mark [13] stands for this setting: dosing group BNZ+ 3 (50mg/kg bid).
[14] abbreviates: 4 10 mg/kg bid + BNZ 30mg/kg qd.
Where [15] appears, read: 4 30 mg/kg bid + BNZ 30mg/kg qd.

T. cruzi complex III (epimastigote lysates), sequence (Q9T479 entry or part of it, one chain of several): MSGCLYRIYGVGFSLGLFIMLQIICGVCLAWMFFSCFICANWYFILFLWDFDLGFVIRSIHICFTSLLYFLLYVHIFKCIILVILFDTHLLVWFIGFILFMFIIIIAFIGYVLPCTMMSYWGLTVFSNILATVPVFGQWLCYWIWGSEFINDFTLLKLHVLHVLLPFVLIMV

In the case of `COc1cc(F)ccc1-c1c(C)[nH]c2nc(N)nc(C)c12` [Compound 2, 5-(4-Fluoro-2-methoxyphenyl)-4,6-dimethyl-7H-pyrrolo[2,3-d]pyrimidin-2-amine], the EC50 in series [1] (read-out: Trypomastigotes EC50) was 30 nM; in [1] (setting [10]), 31.6 nM; in [2] (setting [11]) it was 50.1 nM; in series [2] (read-out: Amastigotes EC50), 50 nM; in series [4] (read-out: HepG2 EC50) it was 79000 nM; in [4] (setting [12]), 63100 nM. For the same compound, the AUC(0-t) in [3] (50 mg/kg, compound 2 50mg/kg bid, 21-day study, read-out: AUC0-7h Day 1) is 5280 ± 1230 ng·h/mL; in [3] (50 mg/kg, compound 2 50mg/kg bid, 21-day study, read-out: AUC0-7h Day 21) it was 8860 ± 1210 ng·h/mL; in series [3] (100 mg/kg, compound 2 100mg/kg bid (changed to qd after day 1), 10-day study, read-out: AUC0-7h Day 1), 6270 ± 1140 ng·h/mL; in series [3] (100 mg/kg, compound 2 100mg/kg bid (changed to qd after day 1), 10-day study, read-out: AUC0-7h Day 10), 11500 ± 1950 ng·h/mL. Also, the Cmax (in general, the peak of the concentration-time curve) in series [3] (50 mg/kg, compound 2 50mg/kg bid, 21-day study, read-out: Cmax Day 1) came to 870 ± 196 ng/mL; in [3] (50 mg/kg, compound 2 50mg/kg bid, 21-day study, read-out: Cmax Day 21) it was 1470 ± 202 ng/mL; in [3] (100 mg/kg, compound 2 100mg/kg bid (changed to qd after day 1), 10-day study, read-out: Cmax Day 1), 1250 ± 236 ng/mL; in [3] (100 mg/kg, compound 2 100mg/kg bid (changed to qd after day 1), 10-day study, read-out: Cmax Day 10) it was 2260 ± 315 ng/mL. This compound registered a Cl int mouse in series [5] of 1.3 ml/min/g liver. Also, in series [5], the half-life at 0.5 μM is 52 min. Besides, the PFI in [6] is given as 6.4. For the same compound, in series [7], half-maximal inhibition (IC50) required 8 ± 1 nM. The fraction unbound at 4 h, 2 μM in [8] is 0.18.

Consider `O=C(Cn1ccnc1[N+](=O)[O-])NCc1ccccc1` [Benznidazole, reference compound], for which the EC50 in [1] (read-out: Trypomastigotes EC50) is 4000 nM; in series [1] (setting [10]) it was 3980 nM; in series [2] (setting [11]), 2000 nM; in series [2] (read-out: Amastigotes EC50) it was 2000 nM; in series [4] (read-out: HepG2 EC50), more than 100000 nM; in series [4] (setting [12]), more than 100000 nM. The “AUC0-7h Day 1, unbound concentrations of BNZ” value was found to be 18788 ± 3214 ng·h/mL in series [3] (dosing group BNZ alone) and 15881 ± 4211 ng·h/mL in series [3] (setting [13]). In addition, the results for the “AUC0-7h Day 5, unbound concentrations of BNZ” value in series [3] (dosing group BNZ alone) and in series [3] (setting [13]) were 12583 ± 1812 ng·h/mL and 11350 ± 4513 ng·h/mL, respectively. The “Cmax Day 1, unbound concentrations of BNZ” value in series [3] (dosing group BNZ alone) came out at 6928 ± 1302 ng/mL; in series [3] (setting [13]), 5188 ± 1385 ng/mL. Moreover, the “Cmax Day 5, unbound concentrations of BNZ” value in series [3] (dosing group BNZ alone) was 5230 ± 1373 ng/mL; in series [3] (setting [13]) it was 3725 ± 1302 ng/mL. Also, the PFI in [6] came out at 4.3. For the same compound, the “95% confidence interval for no-relapse” value in series [9] (Fig. 3, BNZ 30 mg/kg qd, Adjusted Wald) was 0.01 − 0.58; in series [9] (Fig. 6, BNZ 30 mg/kg qd), 0.06 − 0.8.

For the compound `COc1ccc(-c2c(C)[nH]c3nc(N)nc(C)c23)c(OC)c1` [Compound 4, 5-(2,4-Dimethoxyphenyl)-4,6-dimethyl-7H-pyrrolo[2,3-d]pyrimidin-2-amine], the EC50 in series [1] (read-out: Trypomastigotes EC50) was 50 nM; in [1] (setting [10]), 50.1 nM; in series [2] (setting [11]) it was 79.4 nM; in [2] (read-out: Amastigotes EC50), 80 nM; in series [4] (read-out: HepG2 EC50) it was 79000 nM; in series [4] (setting [12]) it was 79400 nM. Besides, the “AUC0-7h Day 1, unbound concentrations of 4” value in [3] (setting [14]) turned out to be 2419 ± 453 ng·h/mL; in series [3] (setting [15]) it was 10441 ± 1994 ng·h/mL; in series [3] (4 50mg/kg bid alone), 16176 ± 776 ng·h/mL. Further, the “AUC0-7h Day 5, unbound concentrations of 4” value in [3] (setting [14]) came out at 1488 ± 292 ng·h/mL; in series [3] (setting [15]), 6773 ± 311 ng·h/mL; in series [3] (4 50mg/kg bid alone), 17378 ± 1605 ng·h/mL. In addition, the “Cmax Day 1, unbound concentrations of 4” value was 496 ± 82 ng/mL in series [3] (setting [14]), 1931 ± 261 ng/mL in series [3] (setting [15]) and 2934 ± 294 ng/mL in series [3] (4 50mg/kg bid alone). The “Cmax Day 5, unbound concentrations of 4” value in [3] (setting [14]) worked out at 650 ± 203 ng/mL; in series [3] (setting [15]) it was 1577 ± 161 ng/mL; in series [3] (4 50mg/kg bid alone), 3736 ± 628 ng/mL. The compound further had a Cl int mouse in [5] of 2.0 ml/min/g liver. In addition, the half-life at 0.5 μM in series [5] stood at 33 min. For the same compound, the PFI in series [6] came to 6.1. Moreover, half-maximal inhibition in series [7] (IC50) required 6 ± 1 nM. Moreover, in series [9] (Fig. 6, compound 4 50 mg/kg bid), the “95% confidence interval for no-relapse” value is 0.01 − 0.58. For the same compound, in [8], the fraction unbound at 4 h, 2 μM is 0.22.
